Assay results published in US4175130A, “Oxazole- and thiazole-alkanoic acid compounds” (Yoshitomi Pharmaceutical Industries, Ltd., priority 1977, dated 1979).

Columns and labels:
[1] = test system: Cholesterol and triglyceride in the serum; experiment: Hypolipidemic action: male rats with normolipidemia (serum cholesterol and triglyceride, oral, 5 days); assay type: in vivo; details: Wistar rats, 100 mg/kg/day oral, control = 100%, * p<0.05 (all values starred)
Procedure: (1) Male rats with normolipidemia:
Male Wistar rats (170-250 g) were used. Each group was composed of 6 animals. The test compound was orally given by a gastric tube for 5 days. Cholesterol and triglyceride in the serum were determined by the standard methods using antoanalyzer (Technicon Inc.). The levels in the control group were considered as 100% and the reduction rate (%) in the test group was calculated.

[2] = Liver weight / hepatomegaly; assay type: in vivo, male Wistar rats; details: for Increase (%) Liver Weight: Wistar rats, 100 mg/kg/day oral, 5 days, * p<0.05 (only clofibrate starred)
serum cholesterol = experiment: Hypolipidemic action: male mice with hyperlipidemia (high cholesterol diet); assay type: in vivo, male dd-strain mice; details: dd mice, 100 mg/kg/day oral, 5 days, * p<0.05 (A, B, C, D starred; clofibrate not)
Procedure: (2) Male mice with hyperlipidemia:
Male dd-strain mice (20-25 g) were used. Each group was composed of 10 animals. Mice were fed a high cholesterol diet (1% cholesterol, 0.2% sodium cholate, 5% olive oil and 93.8% commercial diet) for 5 days. The test compound was orally administered to the animals once a day throughout the experimental period. The serum cholesterol was determined by the procedure described in Experiment (1).

Acute Toxicity (oral) = details: mouse, in vivo, mice, p.o., mortality within 7 days
Procedure: Male dd-strain mice (20-25 g) were used. Each group was composed of 10 animals. The test compound was orally administered to the animals. The LD50 (mg/kg) was calculated from the mortality within 7 days after administration of the test compound.

[3] = Serum Levels in Rhesus Monkey; assay type: in vivo, rhesus monkeys; details: 10 mg/kg oral; for Cmax: read-out: Peak level (serum)
Procedure: Serum Levels in Rhesus Monkey
The test compound was orally administered to rhesus monkeys at the dose of 10 mg/kg. Blood was collected at 0, 2, 4, 6, 8, 24, 30 and 48 hours after the administration of the test compound. After centrifugation, serum was stored at -20° C. until taken for analysis. Serum drug was extracted with ethyl acetate and fluorometrically determined.
(Wavelengths for fluorometric determination:
excitation: 294 nm, emission: 365 nm with compound A;
excitation: 305 nm, emission: 370 nm with compound D)

Compound	Decrease (%) Cholesterol [1] [%]	Decrease (%) Triglyceride [1] [%]	Increase (%) Liver Weight [2] [%]	Decrease (%) of Serum Cholesterol (serum cholesterol) [%]	liver enlargement ([2]; 100 mg/kg)	LD50 at 168 h (Acute Toxicity (oral)) [mg/kg]	hepatomegaly ([2]; 500 mg/kg)	half-life [3] [h]	Cmax [3] [ng/mL]
O.O=C(O)Cc1nc(-c2ccc(Cl)cc2)oc1Oc1ccccc1 [B, 2-p-Chlorophenyl-5-phenoxy-4-oxazoleacetic acid monohydrate]	37	33	-6	38					
CCOC(=O)Cc1nc(-c2ccc(Cl)cc2)sc1Sc1ccccc1 [C, Ethyl 2-p-chlorophenyl-5-phenylthio-4-thiazoleacetate]	40	29	15	34					
CCOC(=O)C(C)(C)Oc1ccc(Cl)cc1 [Clofibrate, reference compound]	32	34	17	16	significant liver enlargement	1500			
CCOC(=O)Cc1nc(-c2ccc(Cl)cc2)oc1Oc1ccc(Cl)cc1 [Compound A, Ethyl 2-p-chlorophenyl-5-p-chlorophenoxy-4-oxazoleacetate]	40	33	5	37		> 6000	no hepatomegaly	30	30000
CCOC(=O)Cc1nc(-c2ccc(Cl)cc2)oc1OCC [D, Ethyl 2-p-chlorophenyl-5-ethoxy-4-oxazoleacetate, reference compound]	32	33	5	37		3700		3	15000
